Test results published in PubChem BioAssay (NCI).
“And” between values parts separate entries of the source, which are not always exact repeats. Equal entries are not always repeated.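 Method: 48-hour compound exposure of cells in 96-well plates, five concentrations, linear interpolation of endpoints. At the GI50, growth is halved. Definition used: TGI = concentration required for complete inhibition of growth.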

Tests used:
Assay in all cases: DTP human tumour cell line panel, 48 h
COLO 205 colon = system: COLO 205 colon
IGROV1 ovarian = system: IGROV1 ovarian
MOLT-4 leukemia = system: MOLT-4 leukemia
NCI-H226 lung = system: NCI-H226 lung
PC-3 prostate = system: PC-3 prostate
SF-268 CNS = system: SF-268 CNS
SK-OV-3 ovarian = system: SK-OV-3 ovarian
SR leukemia = system: SR leukemia
T-47D breast = system: T-47D breast
U251 CNS = system: U251 CNS

| SMILES | GI50 (COLO 205 colon) | TGI (COLO 205 colon) | GI50 (IGROV1 ovarian) | TGI (IGROV1 ovarian) | GI50 (MOLT-4 leukemia) | TGI (MOLT-4 leukemia) | GI50 (NCI-H226 lung) | TGI (NCI-H226 lung) | GI50 (PC-3 prostate) | TGI (PC-3 prostate) | GI50 (SF-268 CNS) | TGI (SF-268 CNS) | GI50 (SK-OV-3 ovarian) | TGI (SK-OV-3 ovarian) | GI50 (SR leukemia) | TGI (SR leukemia) | GI50 (T-47D breast) | TGI (T-47D breast) | GI50 (U251 CNS) | TGI (U251 CNS) |
| --- | --- | --- | --- | --- | --- | --- | --- | --- | --- | --- | --- | --- | --- | --- | --- | --- | --- | --- | --- | --- |
| O=C(O)C1CC[N-]CC1.O=C(O)C1CC[N-]CC1.[NH2-].[NH2-].[Pt+4] | > 100 µM | > 100 µM | > 100 µM | > 100 µM | > 100 µM | > 100 µM | > 100 µM | > 100 µM | > 100 µM | > 100 µM | > 100 µM | > 100 µM | > 100 µM | > 100 µM | > 100 µM | > 100 µM | > 100 µM | > 100 µM | > 100 µM | > 100 µM |
| CN(C)Cc1ccc(O)c(CN(C)C)n1 | – | > 100 µM | – | > 100 µM | – | > 100 µM | – | > 100 µM | – | > 100 µM | – | > 100 µM | – | > 100 µM | – | > 100 µM | – | > 100 µM | – | > 100 µM |
| O=C(O)c1cc(-c2ccc(-c3ccccc3)cc2)nc2cc3ccccc3cc12 | – | > 100 µM | – | > 100 µM | – | > 100 µM | – | > 100 µM | – | > 100 µM | – | > 100 µM | – | > 100 µM | – | > 100 µM | – | > 100 µM | – | > 100 µM |
| C/C=C(/C)C(=O)OC1C=C(CO)C(=O)C(OC(=O)C2(C)OC2C)C1C(C)C (stereo not drawn) | 1.85 µM | 3.43 µM | 1.99 µM | 4.55 µM | 1.96 µM | 6.5 µM | 3.55 µM | 13.7 µM | 1.75 µM | 4.5 µM | 2.46 µM | 6.32 µM | 4.45 µM | 14.3 µM | 0.778 µM | 8.2 µM | 1.27 µM | 2.79 µM | 1.52 µM | 2.85 µM |
| O=C(Nc1nc2ccc(OC(F)(F)F)cc2s1)c1ccc(F)cc1 | 2.11 µM | 4.11 µM | 3.89 µM | > 100 µM | 3.08 µM | 84.9 µM | 2.81 µM | > 100 µM | 2.81 µM | 8.7 µM | 3.71 µM | > 100 µM | 2.6 µM | 8.44 µM | 3.68 µM | 14.1 µM | 2.64 µM | 9.78 µM | 3.98 µM | > 100 µM |
| CC[C@@]1(O)C(=O)OCc2c1cc1n(c2=O)Cc2cc3cc(O)ccc3nc2-1 | 0.573 µM | 2.36 µM and 2.56 µM | 0.238 µM | 22.8 µM and 2.67 µM | 0.011 µM | – | 0.0162 µM and 0.0165 µM | 0.0907 µM and 0.113 µM | – | > 100 µM | 0.0192 µM | – | < 0.0124 µM | 0.7 µM and 1.85 µM | – | 2.14 µM | – | > 100 µM | – | 0.0327 µM |
| CC[C@]1(O)CC2CN(CCc3c([nH]c4ccccc34)C(C(=O)OC)(c3cc4c(cc3OC)N(C=O)[C@H]3[C@@](O)(C(=O)OC)[C@H](OC(C)=O)[C@]5(CC)[C@@H]6C[C@@H]6CN6CC[C@]43[C@@H]65)C2)C1 (stereo partly drawn) | < 0.00325 µM | < 0.00325 µM | < 0.00325 µM | > 18 µM | < 0.00325 µM | 0.339 µM | 0.245 µM | > 16.3 µM | < 0.00325 µM | > 12.3 µM | < 0.00325 µM | 7.39 µM | < 0.00325 µM | < 0.00325 µM | < 0.00325 µM | 0.247 µM | 0.228 µM | – | < 0.00325 µM | 0.146 µM |
| CCOC(=O)C(Cc1ccccc1)n1c(O)c(/C=N/c2ncc(Cc3ccc(Cl)cc3Cl)s2)sc1=S (stereo not drawn) | 1.66 µM | 3.34 µM | 3.73 µM | 71.5 µM | 3.29 µM | > 100 µM | 3.29 µM | > 100 µM | 2.08 µM | > 100 µM | 2.42 µM | 64.8 µM | 2.38 µM | 11.8 µM | 3.98 µM | > 100 µM | 2.16 µM | 8.73 µM | 2.51 µM | 15 µM |
| COC(=O)C1C(=O)C(C(=O)OC)C2CCC1N2C (stereo not drawn) | – | > 100 µM | – | > 100 µM | – | > 57.9 µM | – | > 94.9 µM | – | > 100 µM | – | > 100 µM | – | > 100 µM | – | > 100 µM | – | > 100 µM | – | > 100 µM |
| Cc1cc(NS(=O)(=O)c2ccc(-c3cnc(C4CC4)o3)cc2)ccc1Cl | 0.305 µM | 5.8 µM | 0.335 µM | 13 µM | 0.525 µM | 46.8 µM | 0.985 µM | 17.5 µM | 0.272 µM | 15.3 µM | 2.19 µM | 19.9 µM | 0.868 µM | 20.8 µM | 0.0919 µM | 45.6 µM | 0.323 µM | 23.3 µM | 0.368 µM | 14.9 µM |
| CN1C(=O)[C@@H](CC2CCCC2)N(C2CCCC2)c2nc(Nc3cc(Cl)c(O)c(Cl)c3)ncc21 | 23 µM | 56.1 µM | 32.9 µM | > 100 µM | 12.2 µM | 56 µM | 25 µM | > 100 µM | 14.1 µM | > 100 µM | 33 µM | > 100 µM | 17.1 µM | 75.9 µM | 13 µM | 62.1 µM | 12.9 µM | 74.9 µM | 21.6 µM | 86.9 µM |
